# Results from the METLIN SMRT retention time set (Domingo-Almenara et al. 2019).
# Experiment: gradient 5% acetonitrile 3 min, to 50% in 2 min, to 85% in 15 min, held 3 min, 100 µL/min
# Conditions: column: Zorbax Extend-C18 2.1 x 50 mm; eluents: water / acetonitrile, 0.1% formic acid
# Method in brief: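 Values are retention times taken from adduct peaks that software picked and an analyst inspected. The pure standards were run as mixtures of ~100 molecules on HPLC linked to a quadrupole time-of-flight mass spectrometer, in positive and negative ionization mode. A Zorbax Extend-C18 column (2.1 × 50 mm, 1.8 μm) was used at 100 μL/min with water and acetonitrile, each including 0.1% formic acid.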
row,SMILES,RP-LC retention time
1,COCCNCc1ccc(-c2cccc(Cl)c2)o1,647 s
2,O=C(c1cc(-c2cccnc2)n[nH]1)N1CCN(C(=O)c2ccc(Br)o2)CC1,605 s
3,Cc1nc(CCNC(=O)NC2CCCCC2)no1,649 s
4,Cc1ccccc1-c1nnc(CSc2nnc(NC(=O)Cc3ccc(F)cc3)s2)o1,923 s
5,Cc1cc(S(=O)(=O)Nc2cccn3c(C4CCC4)nnc23)ccc1F,822 s
6,C[C@@]12N[C@@H](Cc3ccccc31)c1ccccc12,655 s
7,Cc1ccc(NC(=O)N2CCC(n3c(-c4ccco4)nc4cccnc43)C2)cc1Cl (stereo unspecified),806 s
8,COc1ccc(NC(=O)COc2ccc(-c3nnc4n3CCCC4)cc2)c(OC)c1,684 s
9,CCOc1cc(C(=O)Nc2c(-c3ccccc3)nc3ccccn23)cc(OCC)c1OCC,759 s
10,COc1ccc(-c2nc3cccnc3n2C2CCN(C(=O)Nc3cccc(OC)c3)C2)cc1 (stereo unspecified),746 s
11,O=C(Cn1ncc2c(N3CCN(c4ccccn4)CC3)ncnc21)Nc1cccc(Br)c1,648 s
12,CC1=C(C(=O)Nc2ccc(C(=O)N3CCN(c4ccc(Cl)cc4)CC3)cc2)SCCO1,957 s
13,COC(=O)C1=C(C)N(Cc2ccccc2)C(=O)NC1c1ccccc1[N+](=O)[O-] (stereo unspecified),856 s
14,O=C(NCc1cccc(Br)c1)C1CCCN(C(=O)Cc2cccc3ccccc23)C1 (stereo unspecified),978 s
15,COC(=O)c1c(C)[nH]c(C(=O)N2CCC(CC(=O)NCCc3c[nH]c4ccc(C)cc34)CC2)c1C,750 s
16,Cc1nnc(N2CCCC(C(=O)N3CCCCC3)C2)c2nn(-c3ccc(Cl)cc3)c(C)c12 (stereo unspecified),741 s
17,CCN1C(=O)COc2ccc(-c3csc(NC(C)=O)n3)cc21,719 s
18,Cc1ccc2c(c1)N(CCC(C)C)N=C(C(=O)N1CCCCC1)S2(=O)=O,1080 s

row,SMILES,RP-LC retention time
1,CCSc1nnc(NC(=O)C2(c3cc(-c4cccs4)on3)CC2)s1,1020 s
2,CC1CCCN(CCCNC(=O)CC2CCN(C(=O)C3CCCCC3)CC2)C1 (stereo unspecified),604 s
3,CN(Cc1ccccc1)C(=O)c1cc2c(n1C)CCN(Cc1cccc(F)c1)C2,681 s
4,O=C(Nc1nccnc1C(=O)NCc1ccncc1)c1ccccc1,590 s
5,CCC1(C(=O)Nc2ccc(C)c(F)c2)CCCCC(=O)N1 (stereo unspecified),771 s
6,Cc1cccc(NC(=O)c2cnc3c(c2)c(=O)n(C)c(=O)n3-c2ccc(F)cc2)c1,904 s
7,CC(C)NC(=O)C1CCCN(S(=O)(=O)c2cc(-c3noc(C4CCCC4)n3)cs2)C1 (stereo unspecified),1050 s
8,COc1ccc2nc(NC(=O)C3CCN(C(=O)c4ccc(-c5noc(C)n5)cc4)CC3)sc2c1,803 s
9,O=C(CSC1CCCC1)NCCCC(=O)Nc1cccc2cccnc12,781 s
10,Cc1ccc(-c2cn3c(CC(=O)NC4CCCC4)csc3n2)cc1C,798 s
11,CCn1ccc(C(=O)N2CC[C@H]3N(CCOC)S(=O)(=O)CC[C@]3(C(=O)N3CCOCC3)C2)n1,622 s
12,CCOc1ccc(-c2noc(CN3C(=O)COc4ccccc43)n2)cc1OC,968 s
13,Cc1nc(-n2c(C)ccc2C)sc1C(=O)NC(C)C,954 s
14,O=C(CN1C(=O)CC(c2cccs2)=Nc2ccccc21)Nc1ccc(F)cc1,928 s
15,Cc1cccn2c(NCc3ccccc3)c(-c3ccccc3OC(=O)C(C)Cl)nc12 (stereo unspecified),1210 s
16,CCc1ccc(NC(=O)CSc2ccc(N3CCC(C(=O)NC(C)C)CC3)nn2)cc1,680 s
17,Cc1c(C(=O)N2CCOCC2)sc2nc(-c3cccc(F)c3)c(NC3CCCC3)n12,859 s
18,O=C(NC1(c2nc(-c3cccnc3)no2)CCCCC1)c1ccoc1,802 s
